From patent US20240092779A1, “USP1 INHIBITORS AND USES THEREOF” (Zentaur Therapeutics USA Inc., priority 2022, published 2024)

Experiments:
[1] = test system: HCC1806 Ub-PCNA (USP1); assay: USP1 Western Blot Protocol (HCC1806 Ub-PCNA); format: cell-based; settings: HCC1806 cells, 4 hours
Source text: USP1 Western Blot Protocol (HCC1806 Ub-PCNA)
USP1 is a deubiquitinase that catalyze the hydrolysis of iso-peptide bond between ubiquitin and the substrate proteins. Inhibition of USP1 activity results in accumulation of mono-ubiquitinated substrate such as Ub-PCNA. A cell assay was set up to determine the cellular potency of USP1 compounds by monitoring the accumulation of Ub-PCNA. The signal intensity was detected by a specific Ub-PCNA antibody through Western-blot analysis.
The assay was initiated by seeding HCC1806 cells (ATCC, CRL-2335) into 6-well plates (Corning, 3516), with a seeding density of 3×10^5 cells per well and 2 mL RPMI 1640 culture medium (Gibco, 11875119). The plates were incubated overnight at 37° C. and 5% CO2. Compounds, solubilized in DMSO (Solarbio, D8371) as 1 mM stock solution, were diluted in 4-fold steps for 5-cencentration point dose response plus a no-compound DMSO control. Diluted compounds (2 μL) were transferred into assay wells (with a final DMSO concentration of −0.1%) and the resulted assay plates incubated at 37° C. and 5% CO2 for 4 hours. After aspiration of culture medium, 100 μL of 4° C. RIPA lysis buffer (Boston BioProducts, BP-115D) supplemented with vendor recommended concentrations of protease (Roche, 4693116001) and phosphatase (Roche, 4906837001) inhibitor, was added to each well and incubated for 10 minutes on the ice. Cells were scrapped loose from the bottom of well with a scraper (Corning, 3008), transferred into a 600 μL EP tube, sonicated using Ultrasound (Qsonica, Q800R3, with 30% energy, 5-second pulse on/off cycles at 4° C., for total 2 minutes), centrifuged 13,000 rpm for 15 minutes at 4° C., and then the supernatant transferred to a new 600 μL EP tube. The total protein concentration was determined using BCA kit following vendor recommended protocol (Solarbio, PC0020-500). Loading samples were prepared by diluting the total protein concentration to 1.5 μg/μL with 5 X NuPAGE SDS loading buffer (Beyotime, P0015L) and RIPA lysis buffer, and boiling at 100° C. for 5 minutes.
15 μg protein from each sample was loaded onto NuPAGE® Novex 4-12% Bis-Tris Midi Gel, 26 W (Invitrogen, WG1403BOX) and electrophoresis was run at 80 V for 30 minutes and 120 V till the end using 1x NuPAGE® MOPS SDS Running Buffer (Novex, NP0001). The gel was then transferred to nitrocellulose membrane using the dry transfer system (iBlot 2 Transfer Stacks, nitrocellulose, D323001) with a program consisting of 20 V for 1 minute, 23 V for 4 minutes and 25 V for 2 minutes. After the membrane was blocked with 5% BSA (Solarbio, A8020) in 1X TBST (CST, 9997S) for 1 hour at room temperature, specific antibodies (Ubiquityl-PCNA antibody (CST, 13439) at 1:500 dilution, PCNA antibody (Santa Cruz, sc-56) at 1:1000 dilution, and GAPDH (CST, 5174) at 1:2000 dilution in 1 X TBST containing 1% BSA) were added and incubated at room temperature for 1.5 hours. After washing the Nitrocellulose membranes with 1 X TBST for 3 times, 10 minutes each time at room temperature, fluorescently labeled secondary antibodies (anti-rabbit IgG, Licor, 926-32211; anti-mouse IgG, LI-COR, 926-68070) at 1:5000 dilution in 1 X TBST containing 1% BSA were added and incubated for 1 hour at room temperature in the dark. The membranes were then rinsed with 1 X TBST and immersed in the RO water. Imaging of band intensity was acquired with Li—COR imaging system (Li—COR, Odyssey clx ES).
Percentage of USP1 inhibition (% Vehicle) was calculated by using following equation examining Ub-PCNA upregulation:
And IC50 was calculated using four-parameter logistic fitting program • Y=Bottom+(Top-Bottom)/(1+10 {circumflex over (()}(LogIC50−X)*Hill Slope)) • X=Log of dose or concentration
(§1) Certain compounds were tested in the assays.

[2] = test system: MDA-MB-436 cells; assay: CTG Protocol (MDA-MB-436 GI50), antiproliferative activity; format: cell-based, human; settings: MDA-MB-436 cells (BRCA1 mutation), 7-day incubation, CellTiter-Glo
Description: CTG Protocol (MDA-MB-436 GI50)
Antiproliferative activity of USP1 inhibitors was determined using breast cancer cell line MDA-MB-436 that harbors BRCA1 mutation. MDA-MB-436 cells (ATCC, HTB-130) was seeded with a seeding density of 1000 cells per well and 95 μL DMEM medium (Gibco, 10566016) into 96-well cell plates (Corning, 3610), and incubated overnight at 37° C. and 5% CO2. Compounds were solubilized in DMSO (Solarbio, D8371) as 10 mM stock solution, and then series diluted (3 folds) with DMSO for 9-point dose-response testing. The resulted series dilutions were then jump-diluted 50-fold by cell culture medium to afford the 20×stock solutions (containing 2% DMSO). Treatment was initiated by adding 5 μL of 20×stock solution to the assay plate and incubated at 37° C. and 5% CO2. At the end of 7-day incubation, cell assay plates were removed from incubation and equilibrated to room temperature (20 min). Then 100 μL of CellTiter-Glo (Promega, G9243) reagent, prepared per manufacturer's protocol, was added to each well, and the resulted plates were centrifuged 1,000 rpm for 1 minute, incubated at room temperature in the dark for 20 minutes, sealed with Perkin Elmer sticky film, and the luminescence signal read by Envision (Perkin Elmer).
Data analysis • a) % Inhibition was calculated using following equation: […]
X: compound concentration; Y: % Inhibition
as §1

Row | Compound | IC50 [1] | GI50 [2] | IC50 ([1]; Homo sapiens) | GI50 ([2]; Homo sapiens, 168 h)
1 | COc1ncnc(C2CC2)c1-c1ncc2ccc(=O)n(C(C)c3ccc(-c4nc(C(F)(F)F)cn4C)cc3)c2n1 (stereo not shown) [Compound 62] | 10 to 100 nM | 10 to 100 nM |  | 
2 | COc1ncnc(C2CC2)c1-c1ncc2ccc(=O)n(Cc3ccc(-c4nc(C(F)(F)F)ccc4OC(C)C)cc3)c2n1 [Compound 75, 2-(4-Cyclopropyl-6-Methoxypyrimidin-5-Yl)-8-({4-[3-Isopropoxy-6-(Trifluoromethyl)Pyridin-2-Yl]Phenyl}Methyl)Pyrido[2,3-d]Pyrimidin-7-One] |  |  | 10 to 100 nM | 10 to 100 nM
3 | COc1ncnc(C2CC2)c1-c1ncc2cc(Cl)c(=O)n(Cc3ccc(-c4nc(C(F)(F)F)cn4C)cc3)c2n1 [Compound 79, 6-Chloro-2-(4-Cyclopropyl-6-Methoxypyrimidin-5-Yl)-8-({4-[1-Methyl-4-(Trifluoromethyl)Imidazol-2-Yl]Phenyl}Methyl)Pyrido[2,3-d]Pyrimidin-7-One] |  |  | 10 to 100 nM | 10 to 100 nM
4 | COc1ncnc(C2CC2)c1-c1ncc2ccc(=O)n(Cc3ccc(-c4nc(C(F)(F)F)c[nH]4)cc3)c2n1 [Compound 58, 2-(4-Cyclopropyl-6-Methoxypyrimidin-5-Yl)-8-({4-[4-(Trifluoromethyl)-1H-Imidazol-2-Yl]Phenyl}Methyl)Pyrido[2,3-d]Pyrimidin-7-One] |  |  |  | 10 to 100 nM
5 | COc1ncnc(C2CC2)c1-c1ncc2cc(-c3cnn(C)c3)c(=O)n(Cc3ccc(-c4nc(C(F)(F)F)cn4C)cc3)c2n1 [Compound 64] |  |  | 10 to 100 nM | 10 to 100 nM
6 | COc1ncnc(C2CC2)c1-c1ncc2ccc(=O)n(Cc3ccc(-c4nc(C(F)(F)F)cn4C)cc3F)c2n1 [Compound 71, 2-(4-Cyclopropyl-6-Methoxypyrimidin-5-Yl)-8-({2-Fluoro-4-[1-Methyl-4-(Trifluoromethyl)Imidazol-2-Yl]Phenyl}Methyl)Pyrido[2,3-d]Pyrimidin-7-One] |  |  | 10 to 100 nM | 10 to 100 nM
7 | COc1ncnc(C2CC2)c1-c1ncc2ccc(=O)n(C(C)c3ccc(-c4nc(C(F)(F)F)cn4C)cc3)c2n1 (stereo not shown) [Compound 63] | 10 to 100 nM | 10 to 100 nM |  | 
8 | [2H]C([2H])([2H])Oc1ncnc(C2CC2)c1-c1ncc2ccc(=O)n(C([2H])([2H])c3ccc(-c4nc(C(F)(F)F)cn4C([2H])([2H])[2H])cc3)c2n1 [Compound 57, 2-[4-cyclopropyl-6-(2H3)methoxypyrimidin-5-yl]-8-({4-[1-(2H3)methyl-4-(trifluoromethyl)imidazol-2-yl]phenyl}(2H2)methyl)pyrido[2,3-d]pyrimidin-7-one] |  |  | < 10 nM | < 10 nM
9 | COc1ncnc(C2CC2)c1-c1ncc2ccc(=O)n(Cc3ccc(-c4nc(C(F)(F)F)cn4C)cn3)c2n1 [Compound 88, 2-(4-Cyclopropyl-6-Methoxypyrimidin-5-Yl)-8-({5-[1-Methyl-4-(Trifluoromethyl)Imidazol-2-Yl]Pyridin-2-Yl}Methyl)Pyrido[2,3-d]Pyrimidin-7-One] |  |  | 10 to 100 nM | > 1000 nM
10 | COc1ncnc(C2CC2)c1-c1ncc2cc(C)c(=O)n(Cc3ccc(-c4nc(C(F)(F)F)cn4C)cc3)c2n1 [Compound 78, 2-(4-cyclopropyl-6-methoxypyrimidin-5-yl)-6-methyl-8-({4-[1-methyl-4-(trifluoromethyl)imidazo]-2-yl]phenylmethyl)pyrido[2,3-d]pyrimidin-7-one] | 10 to 100 nM | 10 to 100 nM |  | 
11 | COc1ncnc(C2CC2)c1-c1ncc2ccc(=O)n(Cc3ccc(-c4ncc(F)cc4OC(C)C)cc3)c2n1 [Compound 67, 2-(4-cyclopropyl-6-methoxypyrimidin-5-yl)-8-{[4-(5-fluoro-3-isopropoxypyridin-2-yl)phenyl]methyl}pyrido[2,3-d]pyrimidin-7-one] |  |  | 10 to 100 nM | 10 to 100 nM
12 | COc1ncnc(C2CC2)c1-c1ncc2ccc(=O)n(Cc3ccc(-c4nc(C(F)(F)F)cn4C)c(F)c3)c2n1 [Compound 72, 2-(4-Cyclopropyl-6-Methoxypyrimidin-5-Yl)-8-({3-Fluoro-4-[1-Methyl-4-(Trifluoromethyl)Imidazol-2-Yl]Phenyl}Methyl)Pyrido[2,3-d]Pyrimidin-7-One] |  |  | 10 to 100 nM | < 10 nM

The remaining lines, values ahead:

Row | IC50 [1] | GI50 [2] | IC50 ([1]; Homo sapiens) | GI50 ([2]; Homo sapiens, 168 h) | Compound
13 |  |  | 10 to 100 nM | 10 to 100 nM | COc1ncnc(C2CC2)c1-c1ncc2cc(-c3nccn3C)c(=O)n(Cc3ccc(-c4nc(C(F)(F)F)cn4C4CC4)cc3)c2n1 [Compound I-158]
14 |  |  | < 10 nM | < 10 nM | COc1ncnc(C2CC2)c1-c1ncc2ncc(=O)n(Cc3ccc(-c4nc(C(F)(F)F)cn4C(C)C)cc3)c2n1 [Compound I-29]
15 |  |  | 10 to 100 nM | 10 to 100 nM | COc1ncnc(C2CC2)c1-c1ncc2cc(-c3nnc(C)n3C)c(=O)n(Cc3ccc(-c4nc(C(F)(F)F)cn4C4CC4)cc3)c2n1 [Compound I-149, 8-({4-[1-Cyclopropyl-4-(Trifluoromethyl)Imidazol-2-Yl]Phenyl}Methyl)-2-(4-Cyclopropyl-6-Methoxypyrimidin-5-Yl)-6-(4,5-Dimethyl-1,2,4-Triazol-3-Yl)Pyrido[2,3-d]Pyrimidin-7-One]
16 |  |  | 10 to 100 nM | 10 to 100 nM | COc1ncnc(C2CC2)c1-c1ncc2cc(-c3nnc(C)o3)c(=O)n(Cc3ccc(-c4nc(C(F)(F)F)cn4C4CC4)cc3)c2n1 [Compound I-154]
17 |  |  | 10 to 100 nM | 10 to 100 nM | COc1ncnc(C2CC2)c1-c1ncc2ccc(=O)n(C(C)c3ccc(-c4nc(C(F)(F)F)cn4C)cc3)c2n1 (stereo not shown) [Compound I-43, 2-(4-Cyclopropyl-6-Methoxypyrimidin-5-Yl)-8-(1-{4-[1-Methyl-4-(Trifluoromethyl)Imidazol-2-Yl]Phenyl}Ethyl)Pyrido[2,3-d]Pyrimidin-7-One]
18 |  |  | 10 to 100 nM | 10 to 100 nM | COc1nn(C)cc1-c1cc2cnc(-c3c(OC)ncnc3C3CC3)nc2n(Cc2ccc(-c3nc(C(F)(F)F)cn3C3CC3)cc2)c1=O [Compound I-164]
19 |  |  | < 10 nM | 10 to 100 nM | COc1ncnc(C2CC2)c1-c1ncc2cc(-c3cn(C)cn3)c(=O)n(Cc3ccc(-c4nc(C(F)(F)F)cn4C4CC4)cc3)c2n1 [Compound I-161, 8-({4-[1-cyclopropyl-4-(trifluoromethyl)imidazo]-2-yl]phenylmethyl)-2-(4-cyclopropyl-6-methoxypyrimidin-5-yl)-6-(1-methylimidazol-4-yl)pyrido[2,3-d]pyrimidin-7-one]
